Measured values as given in ChEMBL document CHEMBL5365408, “Small molecule inhibitors of PCSK9. SAR investigations of head and amine groups” (Bioorg Med Chem Lett, 2023).

Key:
[1] = molecular target: Voltage-gated inwardly rectifying potassium channel KCNH2 (Homo sapiens, UniProt Q12809); assay: Inhibition of hERG by patch clamp assay; format: toxicity
[2] = Cytotoxicity against rat Bone marrow cell assessed as inhibition of cell growth with puromycin as high potent effect standard by celltiter-glo assay; format: toxicity, cell-based; conditions: rat bone marrow cells
[3] = (§1) Cytotoxicity against rat Bone marrow cell assessed as inhibition of cell growth with (R)-4-(3H-[1,2,3]triazolo[4,5-b]pyridin-3-yl)-N-(3-chloropyridin-2-yl)-N-(piperidin-3-yl) benzamide as high potent effect standard by celltiter-glo assay; format: toxicity, cell-based; conditions: rat, rat bone marrow cells
[4] = Cytotoxicity against human CD34-positive cell assessed as reduction in cell growth by celltiter-glo assay; format: toxicity, cell-based; conditions: human CD34-positive cells
[5] = Apparent permeability across basolateral to apical side in MDCK-MDR1 cells; format: ADME, cell-based, Canis lupus familiaris; conditions: dog, read-out: permeability
CYP1A2 = molecular target: T1, CYP1A2 (Homo sapiens, UniProt P05177); assay: Inhibition of CYP1A2 (unknown origin) at 3 uM relative to control; format: ADME
T1 sequence (P05177 whole entry): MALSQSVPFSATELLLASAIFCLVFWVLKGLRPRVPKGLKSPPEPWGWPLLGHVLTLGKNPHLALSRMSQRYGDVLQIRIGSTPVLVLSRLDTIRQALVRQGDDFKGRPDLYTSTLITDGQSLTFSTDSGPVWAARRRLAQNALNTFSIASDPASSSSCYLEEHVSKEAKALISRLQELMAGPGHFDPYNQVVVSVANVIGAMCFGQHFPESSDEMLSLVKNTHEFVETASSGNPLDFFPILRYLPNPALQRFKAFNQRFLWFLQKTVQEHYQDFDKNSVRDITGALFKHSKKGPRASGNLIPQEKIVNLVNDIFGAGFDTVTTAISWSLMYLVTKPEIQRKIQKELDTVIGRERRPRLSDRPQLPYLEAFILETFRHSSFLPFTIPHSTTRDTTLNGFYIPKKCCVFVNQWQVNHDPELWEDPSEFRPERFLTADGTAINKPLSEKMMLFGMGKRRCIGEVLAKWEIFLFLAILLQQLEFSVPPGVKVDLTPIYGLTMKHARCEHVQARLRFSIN

CYP2D6 = CYP2D6 (Homo sapiens, UniProt P10635); assay: Inhibition of CYP2D6 (unknown origin) at 3 uM relative to control; format: ADME
Sequence of CYP2D6 (P10635 whole entry): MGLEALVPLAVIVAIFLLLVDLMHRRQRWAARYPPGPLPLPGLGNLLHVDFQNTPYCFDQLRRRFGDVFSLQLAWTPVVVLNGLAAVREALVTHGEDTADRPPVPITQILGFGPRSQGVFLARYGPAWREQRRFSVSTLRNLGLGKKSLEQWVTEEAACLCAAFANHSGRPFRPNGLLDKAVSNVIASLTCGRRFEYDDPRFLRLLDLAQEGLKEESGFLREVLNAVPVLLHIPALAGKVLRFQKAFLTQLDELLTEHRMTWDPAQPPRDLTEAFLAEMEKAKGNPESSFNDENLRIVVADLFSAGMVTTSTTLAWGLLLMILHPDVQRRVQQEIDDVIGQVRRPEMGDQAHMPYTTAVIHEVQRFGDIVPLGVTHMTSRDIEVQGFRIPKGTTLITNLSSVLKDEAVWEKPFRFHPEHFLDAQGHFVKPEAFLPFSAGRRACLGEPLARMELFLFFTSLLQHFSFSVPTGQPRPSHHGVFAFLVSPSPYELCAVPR

CYP3A4 = CYP3A4 (Homo sapiens, UniProt P08684); assay: Inhibition of CYP3A4 (unknown origin) at 3 uM relative to control; format: ADME
Sequence of CYP3A4 (P08684 whole entry): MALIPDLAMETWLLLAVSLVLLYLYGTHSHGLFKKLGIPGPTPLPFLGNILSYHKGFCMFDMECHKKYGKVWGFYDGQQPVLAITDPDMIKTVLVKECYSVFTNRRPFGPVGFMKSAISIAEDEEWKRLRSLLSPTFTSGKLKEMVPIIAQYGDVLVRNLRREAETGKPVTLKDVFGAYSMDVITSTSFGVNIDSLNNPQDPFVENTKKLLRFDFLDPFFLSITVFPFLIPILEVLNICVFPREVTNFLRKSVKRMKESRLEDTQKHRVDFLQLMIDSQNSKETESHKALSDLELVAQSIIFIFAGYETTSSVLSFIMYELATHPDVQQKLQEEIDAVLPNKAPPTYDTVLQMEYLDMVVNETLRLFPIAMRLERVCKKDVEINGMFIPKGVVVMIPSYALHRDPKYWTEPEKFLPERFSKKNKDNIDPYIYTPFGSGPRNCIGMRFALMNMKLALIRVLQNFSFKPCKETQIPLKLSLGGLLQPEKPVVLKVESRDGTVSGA

[6] = Apparent permeability across apical to basolateral side in MDCK-MDR1 cells; format: ADME, cell-based, Canis lupus familiaris; conditions: dog, read-out: permeability
[7] = Unbound fraction in mouse plasma by equilibrium dialysis analysis; format: ADME, cell-free
[8] = Unbound fraction in human plasma by equilibrium dialysis analysis; format: ADME, cell-free
CYP2C9 = CYP2C9 (Homo sapiens, UniProt P11712); assay: Inhibition of CYP2C9 (unknown origin) at 3 uM relative to control; format: ADME
Sequence of CYP2C9 (P11712 whole entry): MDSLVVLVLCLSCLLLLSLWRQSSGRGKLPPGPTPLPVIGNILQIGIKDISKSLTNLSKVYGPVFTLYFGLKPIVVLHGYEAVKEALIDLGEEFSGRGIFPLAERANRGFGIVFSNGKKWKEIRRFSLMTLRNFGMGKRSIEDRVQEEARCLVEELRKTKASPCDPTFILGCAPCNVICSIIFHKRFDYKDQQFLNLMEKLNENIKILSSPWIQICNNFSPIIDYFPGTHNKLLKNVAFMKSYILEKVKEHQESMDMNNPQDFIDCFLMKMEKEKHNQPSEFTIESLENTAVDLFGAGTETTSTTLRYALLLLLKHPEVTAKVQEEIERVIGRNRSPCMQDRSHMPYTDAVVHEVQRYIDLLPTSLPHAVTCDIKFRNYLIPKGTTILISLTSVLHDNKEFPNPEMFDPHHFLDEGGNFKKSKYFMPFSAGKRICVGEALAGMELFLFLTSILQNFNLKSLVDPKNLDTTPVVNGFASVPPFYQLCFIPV

[9] = Apparent permeability of compound in MDCK-II cells; format: ADME, cell-based, Canis lupus familiaris; conditions: dog, read-out: permeability
[10] = Lipophilicity, log D of the compound by shake flask method; format: physicochemical; conditions: octanol/water
[11] = molecular target: T2, Proprotein convertase subtilisin/kexin type 9 (Homo sapiens, UniProt Q8NBP7); assay: Inhibition of full length human PCSK9 expressed in human Huh-7 cells by ELISA analysis; format: cell-based
T2 sequence (Q8NBP7 31-152 limits assumed): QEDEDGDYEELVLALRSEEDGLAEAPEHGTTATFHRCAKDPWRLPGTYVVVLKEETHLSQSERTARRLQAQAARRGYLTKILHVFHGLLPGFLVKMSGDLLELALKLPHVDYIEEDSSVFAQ
T2 sequence (Q8NBP7 153-692 limits assumed): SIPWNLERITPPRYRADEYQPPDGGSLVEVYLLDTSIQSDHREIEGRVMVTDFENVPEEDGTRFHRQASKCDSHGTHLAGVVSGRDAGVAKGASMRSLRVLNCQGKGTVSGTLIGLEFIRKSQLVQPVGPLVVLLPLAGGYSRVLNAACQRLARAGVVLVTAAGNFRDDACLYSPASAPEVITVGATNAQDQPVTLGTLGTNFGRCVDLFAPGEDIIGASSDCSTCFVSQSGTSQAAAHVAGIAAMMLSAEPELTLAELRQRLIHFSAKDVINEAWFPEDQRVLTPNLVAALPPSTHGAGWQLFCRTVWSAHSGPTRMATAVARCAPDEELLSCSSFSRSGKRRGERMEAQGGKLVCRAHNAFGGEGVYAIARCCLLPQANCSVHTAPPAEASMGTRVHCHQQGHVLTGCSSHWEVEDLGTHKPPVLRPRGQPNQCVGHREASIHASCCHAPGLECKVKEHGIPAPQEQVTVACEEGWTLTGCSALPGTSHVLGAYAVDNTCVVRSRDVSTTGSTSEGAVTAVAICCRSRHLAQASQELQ

[12] = Selectivity index, ratio of IC50 for cytotoxicity against rat Bone marrow cell assessed as inhibition of cell growth by celltiter-glo assay to IC50 for inhibition of full length human PCSK9 expressed in human Huh-7 cells by ELISA analysis
[13] = molecular target: T2, Proprotein convertase subtilisin/kexin type 9; assay: Inhibition of full length human PCSK9 expressed in human Huh-7 cells at 20 uM by ELISA analysis relative to control; format: cell-based
Bone marrow cell = assay: as §1; format: toxicity, cell-based; conditions: bone marrow cell
[14] = Toxicity in rat assessed as reduction in T cells in peripheral blood at 150 mg/kg, po measured for 14 days; format: organism-based, T-cell; conditions: in vivo, 336 h, time 14 day
Mus musculus = assay: Downregulation of PCSK9 level in po dosed mouse; format: functional, organism-based; conditions: dose 10-300 mg/kg
[15] = Cmax in rat at 25 mg/kg, po; format: ADME, organism-based; parameters: dose 25 mg/kg, route po; conditions: in vivo
[16] = Clearance in Sprague-Dawley rat at 1 mg/kg, iv; format: ADME, organism-based; conditions: in vivo
[17] = Oral bioavailability in Sprague-Dawley rat at 5 mg/kg; format: ADME, organism-based; conditions: in vivo
[18] = Toxicity in rat assessed as mortality at 25 to 400 mg/kg, po measured for 14 days; format: organism-based; conditions: in vivo, 336 h, dose 25-400 mg/kg, time 14 day
[19] = Toxicity in rat assessed as reduction in T helper cells in peripheral blood at 150 mg/kg, po measured for 14 days; format: organism-based, T-cell; conditions: in vivo, 336 h, time 14 day
[20] = Unbound fraction in rat plasma by equilibrium dialysis analysis; format: ADME, cell-free
[21] = Volume of distribution at steady state in Sprague-Dawley rat at 1 mg/kg, iv; format: ADME, organism-based; conditions: in vivo, read-out: Vdss
[22] = Cmax in Sprague-Dawley rat at 1 mg/kg, iv; format: ADME, organism-based; parameters: dose 1 mg/kg, route iv; conditions: in vivo
[23] = Toxicity in rat assessed as reduction in T cytotoxic cells in peripheral blood at 150 mg/kg, po measured for 14 days; format: organism-based, T-cell; conditions: in vivo, 336 h, time 14 day
[24] = Toxicity in rat assessed as reduction in B cells in peripheral blood at 150 mg/kg, po measured for 14 days; format: organism-based; conditions: in vivo, 336 h, time 14 day
[25] = Half life in Sprague-Dawley rat at 1 mg/kg, iv; format: ADME, organism-based; conditions: in vivo

Sequence of Voltage-gated inwardly rectifying potassium channel KCNH2 (Q12809 whole entry): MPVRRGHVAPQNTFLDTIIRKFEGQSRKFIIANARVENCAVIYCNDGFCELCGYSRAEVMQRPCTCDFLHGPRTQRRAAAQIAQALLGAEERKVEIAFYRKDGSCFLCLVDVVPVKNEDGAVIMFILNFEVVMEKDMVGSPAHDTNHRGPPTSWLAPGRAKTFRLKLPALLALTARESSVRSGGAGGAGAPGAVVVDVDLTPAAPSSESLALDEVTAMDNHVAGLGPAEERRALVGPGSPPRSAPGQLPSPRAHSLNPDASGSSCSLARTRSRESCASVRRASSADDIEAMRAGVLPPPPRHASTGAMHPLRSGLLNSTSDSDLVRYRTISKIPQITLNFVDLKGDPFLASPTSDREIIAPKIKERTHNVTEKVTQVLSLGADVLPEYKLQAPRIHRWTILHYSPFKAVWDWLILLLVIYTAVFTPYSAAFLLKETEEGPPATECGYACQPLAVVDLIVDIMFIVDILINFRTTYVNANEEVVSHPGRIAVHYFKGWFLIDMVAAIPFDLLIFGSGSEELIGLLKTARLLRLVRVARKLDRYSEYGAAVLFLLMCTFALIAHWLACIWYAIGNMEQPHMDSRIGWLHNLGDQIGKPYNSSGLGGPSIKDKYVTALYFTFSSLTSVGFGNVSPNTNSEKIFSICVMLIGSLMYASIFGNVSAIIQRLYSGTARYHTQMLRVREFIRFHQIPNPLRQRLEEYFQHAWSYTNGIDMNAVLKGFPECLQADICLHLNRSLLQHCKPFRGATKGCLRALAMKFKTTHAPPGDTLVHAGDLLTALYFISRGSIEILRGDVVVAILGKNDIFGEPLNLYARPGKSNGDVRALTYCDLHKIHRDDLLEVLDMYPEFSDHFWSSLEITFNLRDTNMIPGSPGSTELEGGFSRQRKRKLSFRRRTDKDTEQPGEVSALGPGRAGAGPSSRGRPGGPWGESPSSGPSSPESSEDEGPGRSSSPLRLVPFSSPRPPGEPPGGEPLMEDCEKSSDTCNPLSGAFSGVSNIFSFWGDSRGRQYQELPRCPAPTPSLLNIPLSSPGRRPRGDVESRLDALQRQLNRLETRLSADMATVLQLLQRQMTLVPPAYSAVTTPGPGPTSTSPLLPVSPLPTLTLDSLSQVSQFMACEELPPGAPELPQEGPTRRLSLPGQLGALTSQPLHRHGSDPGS

Q: For `O=C(c1ccc(-c2cnn3cccnc23)cc1)N(c1ncccc1C(F)(F)F)[C@@H]1CCCNC1`, which IC50 [1] is on record?
A: Its IC50 is 57.6 µM.

Q: And the IC50 [2]?
A: The IC50 was greater than 20 µM.

Q: What about the IC50 [3] of the same compound?
A: The IC50 was 21.2 µM.

Q: And the IC50 [4]?
A: The IC50 was 35.9 µM.

Q: What about the Papp B→A [5] of the same compound?
A: The Papp B→A was 26.4 ×10⁻⁶ cm/s.

Q: What about the inhibition at 3 µM (CYP1A2) of the same compound?
A: The inhibition at 3 µM was less than 40%.

Q: And the inhibition at 3 µM (CYP2D6)?
A: The inhibition at 3 µM was less than 40%.

Q: And the inhibition at 3 µM (CYP3A4)?
A: Its inhibition at 3 µM is less than 40%.

Q: And the Papp A→B [6]?
A: Its Papp A→B is 0.7 ×10⁻⁶ cm/s.

Q: What about the Fu [7] of the same compound?
A: The Fu was 0.13%.

Q: And the Fu [8]?
A: The Fu was 0.41%.

Q: What about the inhibition at 3 µM (CYP2C9) of the same compound?
A: Its inhibition at 3 µM is less than 40%.

Q: And the Papp [9]?
A: The Papp was 7 ×10⁻⁶ cm/s.

Q: And the logD [10]?
A: The logD was 1.1.

Q: What about the IC50 [11] of the same compound?
A: The IC50 was 2.79 µM.

Q: And the “Ratio IC50” value [12]?
A: Its value is 7.6.

Q: Which inhibition [13] does the source give for `C[C@H]1CNC[C@H](N(C(=O)c2ccc(-n3nnc4cccnc43)cc2)c2ncccc2Cl)C1` (racemic) here?
A: Its inhibition is 43%.

Q: For `O=C(c1ccc(-c2cnn3cccnc23)cc1)N(c1ncccc1F)[C@@H]1CCCNC1`, which IC50 [11] is on record?
A: Its IC50 is greater than 20 µM.

Q: Which results are given for `O=C(c1ccc(-n2nnc3cccnc32)cc1)N(c1nccc2ccsc12)[C@@H]1CCCNC1`?
A: IC50 [2]: 0.28 µM; IC50 [11]: 0.73 µM; Ratio IC50 [12]: 0.38

Q: For `C[C@@H]1CNC[C@H](N(C(=O)c2ccc(-n3nnc4cccnc43)cc2)c2ncccc2Cl)C1`, which IC50 (Bone marrow cell) is on record?
A: The IC50 was 23.3 µM.

Q: And the IC50 [11]?
A: Its IC50 is 17.1 µM.

Q: For `COC(=O)NC[C@H]1CNC[C@H](N(C(=O)c2ccc(-n3nnc4cccnc43)cc2)c2ncccc2Cl)C1` (racemic), which IC50 [11] is on record?
A: Its IC50 is greater than 20 µM.

Q: With `Cc1cccnc1N(C(=O)c1ccc(-n2nnc3cccnc32)cc1)[C@@H]1CCCNC1` as the compound, how does the IC50 [2] read?
A: The IC50 was 0.99 µM.

Q: And the IC50 [11]?
A: Its IC50 is 1.97 µM.

Q: And the “Ratio IC50” value [12]?
A: The value was 0.5.

Q: Which IC50 [11] does the source give for `N#Cc1cccnc1N(C(=O)c1ccc(-c2cnn3cccnc23)cc1)[C@@H]1CCCNC1` here?
A: The IC50 was greater than 20 µM.

Q: With `Cn1ccc2ccnc(N(C(=O)c3ccc(-n4nnc5cccnc54)cc3)[C@@H]3CCCNC3)c21` as the compound, how does the IC50 [2] read?
A: Its IC50 is 0.04 µM.

Q: And the IC50 [11]?
A: Its IC50 is 0.58 µM.

Q: What about the “Ratio IC50” value [12] of the same compound?
A: The value was 0.07.

Q: Which inhibition [13] does the source give for `C[C@@H]1CNC[C@H](N(C(=O)c2ccc(-n3nnc4cccnc43)cc2)c2ncccc2Cl)C1` (racemic) here?
A: Its inhibition is 38%.

Q: For `CNC(=O)OC[C@H]1CNC[C@H](N(C(=O)c2ccc(-n3nnc4cccnc43)cc2)c2ncccc2Cl)C1` (racemic), which IC50 [11] is on record?
A: The IC50 was greater than 20 µM.

Q: With `COc1cccnc1N(C(=O)c1ccc(-c2cnn3cccnc23)cc1)[C@@H]1CCCNC1` as the compound, how does the IC50 [11] read?
A: Its IC50 is 16.9 µM.

Q: For `Cc1cnc2c(c1)nnn2-c1ccc(C(=O)N(c2ncccc2Cl)[C@@H]2CCCNC2)nc1`, which IC50 [2] is on record?
A: Its IC50 is 19.9 µM.

Q: What about the IC50 [3] of the same compound?
A: The IC50 was 27.1 µM.

Q: Which Activity [14] does the source give for `Cc1cccnc1N(C(=O)c1ccc(-c2cnn3cccnc23)cc1)[C@@H]1CCCNC1` here?
A: The Activity was “Non-Toxic”.

Q: And the Activity (Mus musculus)?
A: Its Activity is “Dose-Dependent Effect”.

Q: What about the IC50 [1] of the same compound?
A: The IC50 was 56.5 µM.

Q: And the Cmax [15]?
A: Its Cmax is 255 ng/mL.

Q: What about the IC50 [2] of the same compound?
A: Its IC50 is 16.8 µM.

Q: What about the IC50 [3] of the same compound?
A: Its IC50 is 18.2 µM.

Q: And the clearance [16]?
A: Its clearance is 43.6 mL/min/kg.

Q: And the bioavailability [17]?
A: The bioavailability was 20%.

Q: What about the Activity [18] of the same compound?
A: The Activity was “Non-Toxic”.

Q: And the IC50 [4]?
A: Its IC50 is 13.6 µM.

Q: And the Activity [19]?
A: The Activity was “Non-Toxic”.

Q: What about the Papp B→A [5] of the same compound?
A: Its Papp B→A is 15.7 ×10⁻⁶ cm/s.

Q: What about the inhibition at 3 µM (CYP1A2) of the same compound?
A: Its inhibition at 3 µM is less than 5%.

Q: What about the inhibition at 3 µM (CYP2D6) of the same compound?
A: The inhibition at 3 µM was less than 5%.

Q: What about the Fu [20] of the same compound?
A: The Fu was 0.32%.

Q: And the Vd [21]?
A: Its Vd is 3 L/kg.

Q: What about the inhibition at 3 µM (CYP3A4) of the same compound?
A: Its inhibition at 3 µM is less than 5%.

Q: And the Papp A→B [6]?
A: Its Papp A→B is 0.4 ×10⁻⁶ cm/s.

Q: And the Fu [7]?
A: The Fu was 0.37%.

Q: And the Fu [8]?
A: Its Fu is 0.54%.

Q: What about the Cmax [22] of the same compound?
A: Its Cmax is 121 ng/mL.

Q: And the inhibition at 3 µM (CYP2C9)?
A: Its inhibition at 3 µM is less than 5%.

Q: And the Papp [9]?
A: The Papp was 7 ×10⁻⁶ cm/s.

Q: And the Activity [23]?
A: Its Activity is “Non-Toxic”.

Q: And the logD [10]?
A: Its logD is 0.6.

Q: And the Activity [24]?
A: Its Activity is “Non-Toxic”.

Q: And the IC50 [11]?
A: The IC50 was 2.25 µM.

Q: And the half-life [25]?
A: Its half-life is 1.7 h.

Q: What about the “Ratio IC50” value [12] of the same compound?
A: The value was 7.47.

Q: What does the source list for `O=C(c1ccc(-n2nnc3cccnc32)cc1)N(c1ncccc1Cl)[C@@H]1CCCNC1`?
A: Cmax [15]: 312 ng/mL; IC50 [2]: 1.15 µM; IC50 [3]: 3.23 µM

Q: With `O=C(c1ccc(-c2cnn3cccnc23)cc1)N(c1ncccc1C1CC1)[C@@H]1CCCNC1` as the compound, how does the IC50 [11] read?
A: The IC50 was 7.74 µM.

Q: What does the source list for `O=C(c1ccc(-n2nnc3cccnc32)cc1)N(c1ncccc1Cl)[C@H]1CNC[C@H](CO)C1` (racemic)?
A: IC50 [3]: 9.9 µM; IC50 [11]: 8.9 µM

Q: What does the source list for `O=C(c1ccc(-n2nnc3cccnc32)cc1)N(c1ncccc1Cl)[C@H]1CNC[C@H](CO)C1`?
A: IC50 (Bone marrow cell): 7.2 µM; IC50 [11]: 4.6 µM
